Source: patent US20250197372A1 (priority 2020, published 2025)

Columns and labels:
Type in all cases: biochemical
[1] = target: T1, recombinant human GBA (beta-glucocerebrosidase) (Homo sapiens, UniProt P04062); assay: Beta-glucocerebrosidase (GBA, glucosylceramidase) assay (4-methylumbelliferyl-beta-D-pyranoside substrate, fluorescence)
T1 sequence (P04062 40-536): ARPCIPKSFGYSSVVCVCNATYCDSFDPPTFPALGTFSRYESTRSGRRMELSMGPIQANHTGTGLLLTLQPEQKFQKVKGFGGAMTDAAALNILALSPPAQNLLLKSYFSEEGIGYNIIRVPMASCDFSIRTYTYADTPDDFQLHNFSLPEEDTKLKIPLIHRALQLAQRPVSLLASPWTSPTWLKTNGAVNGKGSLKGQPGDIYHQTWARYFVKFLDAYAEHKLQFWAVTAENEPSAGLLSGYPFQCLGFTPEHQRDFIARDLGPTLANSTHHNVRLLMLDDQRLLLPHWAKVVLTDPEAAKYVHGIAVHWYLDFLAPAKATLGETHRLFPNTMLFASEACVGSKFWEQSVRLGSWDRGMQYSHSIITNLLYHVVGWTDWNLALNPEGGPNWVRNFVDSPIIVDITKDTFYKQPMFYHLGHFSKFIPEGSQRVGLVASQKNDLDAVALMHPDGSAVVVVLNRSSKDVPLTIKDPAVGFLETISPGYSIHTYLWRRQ
Summary of the method: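 Recombinant human GBA preincubated with compound dilutions 60 min at 37 °C, then 4-methylumbelliferyl-beta-D-pyranoside added for 60 min at 37 °C. Stopped at pH 10 (glycine/NaOH); fluorescence ex 365/em 440 nm. IC50 from 4-PL fit of inhibition relative to untreated enzyme.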

[2] = target: rat maltase (partially purified alpha-glucosidase from intestinal rat powder); assay: Intestinal alpha-glucosidase assay, maltose substrate (Glucose GO Kit)
Summary of the method: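 Rat intestinal enzyme prep + test cpd dilutions, 60 min 37 °C; add maltose (maltase) or sucrose (sucrase), 30 min 37 °C; stop 90 °C 5 min. Glucose readout (glucose oxidase kit). IC50 from 4-PL fit of % inhibition vs conc.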

[3] = target: T2, recombinant alpha-glucosidase II (murine full-length glucosidase II, alpha and beta subunits, Glu 2) (Mus musculus, UniProt Q8BHN3); assay: Alpha-glucosidase II assay (4-methylumbelliferyl-alpha-D-pyranoside substrate, fluorescence); settings: Glucosidase 2; read-out: Glu2 IC50
T2 construct: made in house; host or cells: HEK-293T cells transduced with BacMam viruses (75% alpha, 25% beta); protein harvested from culture supernatant
T2 sequence (O08795 15-521): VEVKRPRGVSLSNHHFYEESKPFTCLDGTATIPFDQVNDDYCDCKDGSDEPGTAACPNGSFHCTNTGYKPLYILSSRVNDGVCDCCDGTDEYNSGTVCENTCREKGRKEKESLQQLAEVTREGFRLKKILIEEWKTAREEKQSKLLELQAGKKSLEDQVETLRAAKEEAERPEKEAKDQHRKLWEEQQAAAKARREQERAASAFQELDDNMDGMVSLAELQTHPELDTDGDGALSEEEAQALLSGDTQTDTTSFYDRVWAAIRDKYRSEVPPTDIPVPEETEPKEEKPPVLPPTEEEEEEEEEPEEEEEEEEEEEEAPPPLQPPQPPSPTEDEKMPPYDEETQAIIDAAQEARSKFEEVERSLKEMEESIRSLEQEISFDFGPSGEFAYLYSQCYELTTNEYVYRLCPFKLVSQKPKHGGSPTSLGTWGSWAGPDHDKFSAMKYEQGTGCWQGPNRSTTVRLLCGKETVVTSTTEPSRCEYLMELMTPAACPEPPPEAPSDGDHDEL
T2 sequence (Q8BHN3 33-944): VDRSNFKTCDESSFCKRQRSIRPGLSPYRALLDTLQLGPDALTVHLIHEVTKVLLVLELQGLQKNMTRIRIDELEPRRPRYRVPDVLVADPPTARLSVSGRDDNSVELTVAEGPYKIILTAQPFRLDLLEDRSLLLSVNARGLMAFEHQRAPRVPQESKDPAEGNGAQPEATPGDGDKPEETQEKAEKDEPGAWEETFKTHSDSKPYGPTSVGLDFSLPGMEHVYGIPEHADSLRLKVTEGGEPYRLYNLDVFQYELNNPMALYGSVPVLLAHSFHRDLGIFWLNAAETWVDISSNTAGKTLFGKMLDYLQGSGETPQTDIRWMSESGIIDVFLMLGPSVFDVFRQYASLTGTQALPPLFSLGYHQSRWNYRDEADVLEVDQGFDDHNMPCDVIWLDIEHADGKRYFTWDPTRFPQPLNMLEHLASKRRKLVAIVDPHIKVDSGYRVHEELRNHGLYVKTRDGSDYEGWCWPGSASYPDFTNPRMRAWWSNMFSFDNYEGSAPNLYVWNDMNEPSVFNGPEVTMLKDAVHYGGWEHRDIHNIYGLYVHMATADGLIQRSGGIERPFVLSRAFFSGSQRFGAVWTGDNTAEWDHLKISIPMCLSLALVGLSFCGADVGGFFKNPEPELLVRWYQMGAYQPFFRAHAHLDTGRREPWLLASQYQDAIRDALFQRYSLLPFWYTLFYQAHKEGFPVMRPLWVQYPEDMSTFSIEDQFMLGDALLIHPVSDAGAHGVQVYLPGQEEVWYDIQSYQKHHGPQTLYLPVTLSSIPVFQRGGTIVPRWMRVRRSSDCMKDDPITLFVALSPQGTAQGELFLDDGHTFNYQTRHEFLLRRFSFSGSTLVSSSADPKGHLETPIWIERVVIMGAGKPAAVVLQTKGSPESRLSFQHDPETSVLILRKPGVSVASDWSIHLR

[4] = target: recombinant human GAA (acid alpha-glucosidase) (Homo sapiens, UniProt P10253); assay: Acid alpha-glucosidase (GAA) assay (4-methylumbelliferyl-alpha-D-pyranoside substrate, fluorescence)
Summary of the method: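 Recombinant human enzyme preincubated 60 min at 37 °C with compound dilutions, then 4-methylumbelliferyl-alpha-D-pyranoside substrate added for 20 min at 37 °C. Stopped with glycine/NaOH pH 10; methylumbelliferone fluorescence (ex 365, em 440 nm) versus untreated enzyme; IC50 by 4-PL fit.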

| Structure (SMILES) | IC50 [1] | IC50 [2] | IC50 [3] | IC50 [4] |
| --- | --- | --- | --- | --- |
| Nc1ccc(NCCn2cc(CCN3C[C@H](O)[C@@H](O)[C@H](O)[C@H]3CO)nn2)c([N+](=O)[O-])c1Cl [Compound 1253, (2R,3R,4R,5S)-1-[2-(1-{2-[(4-amino-3-chloro-2-nitrophenyl)amino]ethyl}-1H-1,2,3-triazol-4-yl)ethyl]-2-(hydroxymethyl)piperidine-3,4,5-triol] | > 100000 nM | 777 nM | 225 nM | 664 nM |
| [N-]=[N+]=Nc1ccc(N2CCN(CCN3C[C@H](O)[C@@H](O)[C@H](O)[C@H]3CO)CC2)c([N+](=O)[O-])c1 [Compound 1254, (2R,3R,4R,5S)-1-{2-[4-(4-azido-2-nitrophenyl)piperazin-1-yl]ethyl}-2-(hydroxymethyl)piperidine-3,4,5-triol] | > 100000 nM | 1210 nM | 865 nM | > 100000 nM |
| [N-]=[N+]=Nc1ccc(NCCOCCN2C[C@H](O)[C@@H](O)[C@H](O)[C@H]2CO)c([N+](=O)[O-])c1 [Compound 1255, (2R,3R,4R,5S)-1-(2-{2-[(4-azido-2-nitrophenyl)amino]ethoxy}ethyl)-2-(hydroxymethyl)piperidine-3,4,5-triol] | 3080 nM | 33 nM | 29 nM | 228 nM |
| N#Cc1cc(-c2ncccn2)ccc1NCCCCCCN1C[C@H](O)[C@@H](O)[C@H](O)[C@H]1CO [Compound 1256, 5-(pyrimidin-2-yl)-2-({6-[(2R,3R,4R,5S)-3,4,5-trihydroxy-2-(hydroxymethyl)piperidin-1-yl]hexyl}amino)benzonitrile] | 1230 nM | 10 nM | 6 nM | 33 nM |
| CN(C)Cc1ccc(NCCCCCCN2C[C@H](O)[C@@H](O)[C@H](O)[C@H]2CO)c(C#N)c1 [Compound 1257, 5-[(dimethylamino)methyl]-2-({6-[(2R,3R,4R,5S)-3,4,5-trihydroxy-2-(hydroxymethyl)piperidin-1-yl]hexyl}amino)benzonitrile] | 6530 nM | 8 nM | 19 nM | 73 nM |
| OC[C@@H]1[C@@H](O)[C@H](O)[C@@H](O)CN1CCCCCCNc1ccc(-c2ncccn2)cc1C(F)(F)F [Compound 1258, (2R,3R,4R,5S)-2-(hydroxymethyl)-1-(6-{[4-(pyrimidin-2-yl)-2-(trifluoromethyl)phenyl]amino}hexyl)piperidine-3,4,5-triol] | 1350 nM | 19 nM | 31 nM | 32 nM |
| CN(C)Cc1ccc(NCCCCCCN2C[C@H](O)[C@@H](O)[C@H](O)[C@H]2CO)c(C(F)(F)F)c1 [Compound 1259, (2R,3R,4R,5S)-1-[6-({4-[(dimethylamino)methyl]-2-(trifluoromethyl)phenyl}amino)hexyl]-2-(hydroxymethyl)piperidine-3,4,5-triol] | 1350 nM | 20 nM | 72 nM | 238 nM |
| NS(=O)(=O)c1cc(-c2ncccn2)ccc1NCCCCCCN1C[C@H](O)[C@@H](O)[C@H](O)[C@H]1CO [Compound 1265, 5-(pyrimidin-2-yl)-2-({6-[(2R,3R,4R,5S)-3,4,5-trihydroxy-2-(hydroxymethyl)piperidin-1-yl]hexyl}amino)benzene-1-sulfonamide] | 5080 nM | 5 nM | 12 nM | 35 nM |
| NC(=O)c1cc(-c2ncccn2)ccc1NCCCCCCN1C[C@H](O)[C@@H](O)[C@H](O)[C@H]1CO [Compound 1266, 5-(pyrimidin-2-yl)-2-({6-[(2R,3R,4R,5S)-3,4,5-trihydroxy-2-(hydroxymethyl)piperidin-1-yl]hexyl}amino)benzamide] | 6340 nM | 2 nM | 7 nM | 103 nM |
| [N-]=[N+]=Nc1ccc(NCCOC(=O)NCCN2C[C@H](O)[C@@H](O)[C@H](O)[C@H]2CO)c([N+](=O)[O-])c1 [Compound 1268, 2-[(4-azido-2-nitrophenyl)amino]ethyl N-{2-[(2R,3R,4R,5S)-3,4,5-trihydroxy-2-(hydroxymethyl)piperidin-1-yl]ethyl}carbamate] | 1520 nM | 68 nM | 32 nM | 617 nM |
| [N-]=[N+]=Nc1ccc(NCCC(O)C(O)CCN2C[C@H](O)[C@@H](O)[C@H](O)[C@H]2CO)c([N+](=O)[O-])c1 (stereo partly drawn) [Compound 1270, (2R,3R,4R,5S)-1-{6-[(4-azido-2-nitrophenyl)amino]-3,4-dihydroxy-hexyl}-2-(hydroxymethyl)piperidine-3,4,5-triol] | 81 nM | 57 nM | 46 nM | 190 nM |
| [N-]=[N+]=Nc1ccc(NCCN2CC(OCCN3C[C@H](O)[C@@H](O)[C@H](O)[C@H]3CO)C2)c([N+](=O)[O-])c1 [Compound 1271, (2R,3R,4R,5S)-1-{2-[(1-{2-[(4-azido-2-nitrophenyl)amino]ethyl}azetidin-3-yl)oxy]ethyl}-2-(hydroxymethyl)piperidine-3,4,5-triol] | 1900 nM | 33 nM | 539 nM | 1360 nM |
| [N-]=[N+]=Nc1ccc(NCCn2cc(CCN3C[C@H](O)[C@@H](O)[C@H](O)[C@H]3CO)nn2)c([N+](=O)[O-])c1 [Compound 1272, (2R,3R,4R,5S)-1-[2-(1-{2-[(4-azido-2-nitrophenyl)amino]ethyl}-1H-1,2,3-triazol-4-yl)ethyl]-2-(hydroxymethyl)piperidine-3,4,5-triol] | 4100 nM | 239 nM | 39 nM | 800 nM |
| [N-]=[N+]=Nc1ccc(NCCN2CCN(CCN3C[C@H](O)[C@@H](O)[C@H](O)[C@H]3CO)CC2)c([N+](=O)[O-])c1 [Compound 1273, (2R,3R,4R,5S)-1-[2-(4-{2-[(4-azido-2-nitrophenyl)amino]ethyl}piperazin-1-yl)ethyl]-2-(hydroxymethyl)piperidine-3,4,5-triol] | 2980 nM | 646 nM | 548 nM | 15600 nM |
| [N-]=[N+]=Nc1ccc(NCCS(=O)(=O)CCCN2C[C@H](O)[C@@H](O)[C@H](O)[C@H]2CO)c([N+](=O)[O-])c1 [Compound 1274, (2R,3R,4R,5S)-1-(3-{2-[(4-azido-2-nitrophenyl)amino]ethane-sulfonyl}propyl)-2-(hydroxymethyl)piperidine-3,4,5-triol] | 2990 nM | 151 nM | 48 nM | 136 nM |
| [N-]=[N+]=Nc1ccc(NCCNS(=O)(=O)NCCN2C[C@H](O)[C@@H](O)[C@H](O)[C@H]2CO)c([N+](=O)[O-])c1 [Compound 1275, (2R,3R,4R,5S)-1-{2-[({2-[(4-azido-2-nitrophenyl)amino]ethyl}sulfamoyl)amino]ethyl}-2-(hydroxymethyl)piperidine-3,4,5-triol] | 2170 nM | 288 nM | 366 nM | 556 nM |
| [N-]=[N+]=Nc1ccc(NCCNC(=O)NCCN2C[C@H](O)[C@@H](O)[C@H](O)[C@H]2CO)c([N+](=O)[O-])c1 [Compound 1276, 1-{2-[(4-azido-2-nitrophenyl)amino]ethyl}-3-{2-[(2R,3R,4R,5S)-3,4,5-trihydroxy-2-(hydroxymethyl)piperidin-1-yl]ethyl}urea] | 62 nM | 49 nM | 39 nM | 253 nM |
| Nc1ccc(NCCCCCCCCN2C[C@H](O)[C@@H](O)[C@H](O)[C@H]2CO)c([N+](=O)[O-])c1Cl [Compound 1277, (2R,3R,4R,5S)-1-{8-[(4-amino-3-chloro-2-nitrophenyl)amino]octyl} 2-(hydroxymethyl)piperidine-3,4,5-triol] | < 10 nM | 52 nM | < 1 nM | < 10 nM |
| CC#Cc1ccc(NCCCCCCN2C[C@H](O)[C@@H](O)[C@H](O)[C@H]2CO)c([N+](=O)[O-])c1 [Compound 1290, (2R,3R,4R,5S)-2-(hydroxymethyl)-1-(6-{[2-nitro-4-(prop-1-yn-1-yl)phenyl]amino}hexyl)piperidine-3,4,5-triol] | 175 nM | < 10 nM | 1.2 nM | 21 nM |
| [N-]=[N+]=Nc1ccc(NCCCCCCN2C[C@H](O)[C@@H](O)[C@H](O)[C@H]2CO)c(C(N)=O)c1 [Compound 1296, 5-azido-2-({6-[(2R,3R,4R,5S)-3,4,5-trihydroxy-2-(hydroxymethyl)piperidin-1-yl]hexyl}amino)benzamide] | 3260 nM | < 10 nM | 29 nM | 124 nM |
